Source: paper PMC4424350, “Unraveling the Specific Regulation of the Central Pathway for Anaerobic Degradation of 3-Methylbenzoate” (The Journal of Biological Chemistry, 2015)

Biological target: T1, MbdR (MbdR-His6) (Azoarcus sp., UniProt Z9KMW0QJC7)
T1 construct: full-length, C-terminal His6 (pETmbdR), expressed in E. coli BL21(DE3), Ni-NTA; dimer in solution
Assay: gel retardation (release of promoter DNA); DNase I footprinting; in vitro transcription
Assay type: binding
Conditions: inducer; 30 nM MbdR-His6 with PO or PB1 DNA probe, 20 mM Tris-HCl pH 7.5, 50 mM KCl, 30 °C

Cc1cccc(C(=O)SCCNC(=O)CCNC(=O)[C@H](O)C(C)(C)COP(=O)(O)OP(=O)(O)OC[C@H]2O[C@@H](n3cnc4c(N)ncnc43)[C@H](O)[C@@H]2OP(=O)(O)O)c1 [3-methylbenzoyl-CoA]
gel retardation (release of promoter DNA); DNase I footprinting; in vitro transc: 3-methylbenzoyl-CoA inhibited the interaction of MbdR with the PO and PB1 probes
